Molecular target: T1, A. thaliana protein molecule SEQ ID NO: 4 (His-tagged, from pMON63134) (Arabidopsis thaliana, UniProt Q9ZW18)
T1 construct: His-tag (N); made in house; host or cells: E. coli (pET-28b vector, plasmid pMON63134)
Assay: Spectrophotometric reductase assay, consumption or production of NADPH at 340 nm
Assay type: biochemical
Excerpt: Appropriate clones (as shown in FIGS. 4-7) expressing all four versions of above-mentioned proteins in E. coli were identified by appropriate antibiotic selection as described by the manufacturer (Novagen 441 Charmany Drive Madison, Wis., 53719, USA). Expressed protein bands of the predicted sizes were identified by analytical SDS poly acrylamide gel electrophoresis (Laemmli, U.K., Nature, 227, 680, 1970) to confirm the expression of desired protein. […] Protein obtained from the plasmid pMON63134 (FIG. 6) was chosen for assay work described below. Protein extracts were prepared by freeze thawing and sonication as described Cull and McHenry (Cull M and McHenry C. S. Methods in Enzymology 182, 147-153, 1990). Pellets were resuspended in an appropriate volume of either 50 mM Tris-HCl pH 7.4 250 mM NaCl and 500 μM EDTA with 0.05% CHAPS and 1 mM ABESF or 50 mM KH2PO4 pH-7.2 250 mM NaCl and 250 μM EDTA with 0.05% CHAPS and 1 mM ABESF, buffer. Crude extracts containing His-tagged protein were applied to equilibrated His-Trap (Pharmacia Piscataway, N.J.) columns and purified by standard procedures as described by the manufacturer of the columns. Steps included a 10 mM imidazole elution/wash and elution in 250 mM imidazole. As a result the Arabidopsis tagged protein was partially purified (approximately 85-90% by SDS-PAGE stained with Coomasie Blue). Purified samples were gel filtered into 50 mM KH2PO4 pH-7.2 250 mM NaCl and 250 μM EDTA, 10% glycerol and stored at −80° C. until use. Protein concentrations were 1.5 to 1.7 mg/mL, based on the method of Bradford (Bradford M, Anal Biochem, 72, 248, 1976 and Bio-Rad Laboratories Procedure bulletin 1123) with BSA standard (Bradford reagent and BSA was from Bio-Rad Laboratories Headquarters 1000 Alfred Nobel Drive Hercules, Calif. 94547). The assays described below used 10 or 15 uL of this solution (15 to 22 μg per reaction).
Spectrophotometric assays were used for determination of enzyme activities of purified proteins. Assays were based on earlier described methods (Portsteffen et al. Phyochemistry, 37, 391, 1994). […] Assays were performed in a Varian Cary 50 Bio spectrophotometer (Varian Instruments Inc. AA, ICP, UV, to Fluorescence Products 679 Springvale RoadMulgrave, Victoria 3170 Australia). All assays were run at 30° C. for 10 to 30 minutes in 1 mL volumes using 100 mM KH2PO4 pH 6.5, 250 μM EDTA or 50 mM KH2PO4 pH-7.2, 250 mM NaCl, and 250 μM EDTA as reaction buffer. If metals were added they were supplemented to reactions in cuvettes from 100 mM stocks of either ZnCl2 and or MgCl2. Substrates included those found in table 8. […] Controls contained no substrate to determine the background rate of consumption and degradation of NADPH. NADPH solutions were freshly made and checked by UV-vis for degradation. Enzyme solutions were supplemented with 1 mM MgCl2 and 1 mM Zn Cl2 which were at 1.5 to 1.7 mg/mL concentrations. The assays used 10 or 15 μl of this solution (ca. 15 to 22 μg per reaction). Stock solutions of the substrates (20 to 500 mM) were made up in a reaction buffer or as noted. Steroids solutions were made in 100% EtOH. From these stock solutions additions to the assays were made directly. Precipitation of steroids was observed. Thus, the soluble concentration of steroids in reaction mixture is not accurately known in each case. However, good estimate of substrate (sterol) concentration would be 100 to 200 μM for a saturated solution under these conditions. […] In addition to cell extract control, a substrate control was also employed because solutions of some substrates tested can have a lower pH at described assay conditions which may affect rates of NADPH degradation and enzyme activity under assay conditions.

T1 sequence (Q9ZW18 1-268): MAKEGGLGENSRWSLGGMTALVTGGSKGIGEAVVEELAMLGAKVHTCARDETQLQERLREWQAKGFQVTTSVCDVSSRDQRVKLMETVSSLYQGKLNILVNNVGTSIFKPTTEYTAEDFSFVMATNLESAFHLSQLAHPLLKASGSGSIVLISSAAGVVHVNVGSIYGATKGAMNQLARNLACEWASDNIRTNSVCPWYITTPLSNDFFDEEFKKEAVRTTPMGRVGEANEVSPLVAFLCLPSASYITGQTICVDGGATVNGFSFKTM

C[C@]12CCC(=O)CC1CCC1C2CC[C@]2(C)C(=O)CCC12 (stereo in doubt) [5α-androstane-3,17-dione]
Activity (substrate) (100 μM): YES 100 μM

CN1C2CCC1CC(O)C2 (stereo not drawn) [Tropine]
Activity (substrate) (1 and 10 mM): No retested with new enzyme 1 and 10 mM

OC[C@H]1O[C@@](CO)(O[C@H]2O[C@H](CO)[C@@H](O)[C@H](O)[C@H]2O)[C@@H](O)[C@@H]1O [Sucrose]
Activity (substrate) (25 mM): No 25 mM

O=C1OC(CO)[C@H](O)C(O)C1O (stereo partly drawn) [δ-gluconolactone]
Activity (substrate) (25 mM): No 25 mM

CN1C2CCC1CC(=O)C2 [Tropinone]
Activity (substrate) (1 and 10 mM): No retested with new enzyme 1 and 10 mM

C=C1C[C@]23C[C@@]1(O)CC[C@H]2[C@@]12C=C[C@H](O)[C@@](C)(C(=O)O1)[C@H]2[C@@H]3C(=O)O [Gibberellic Acid (GA3)]
Activity (substrate) (1 and 10 mM): No 1 and 10 mM

acetone
Activity (substrate) (65 mM): Yes | Activity (substrate) (at lower concentrations than 65 mM): Much lower

OCC(O)C(O)C(O)CO (stereo not drawn) [Arabinitol]
Activity (substrate) (25 mM): No 25 mM

O=C(O)C(O)C(O)C(O)C(O)CO (stereo not drawn) [Potassium d-gluconate]
Activity (substrate) (25 mM): No 25 mM

isopropanol
Activity (substrate) (68 mM, substrate for the reverse reaction): Yes 68 mM | substrate quality compared with acetone (at same concentrations, reverse reaction): At high concentrations it is a substrate for the reverse reaction but at same concentrations is a poorer substrate than acetone indicating potential preference for the reductase activity under these conditions.

C[C@]12CCC(=O)C=C1CCC1C2CC[C@]2(C)C(=O)CCC12 (stereo partly drawn) [4-androstene-3,17-dione]
Activity (substrate) (100 μM): YES 100 μM

O=C1OC(CO)[C@@H](O)[C@H](O)C1O (stereo partly drawn) [Glucono 1,5 lactone]
Activity (substrate) (25 mM): No 25 mM

OCC1O[C@H](O)C(O)[C@@H](O)[C@@H]1O (stereo partly drawn) [D-Glucose]
Activity (substrate) (25 mM): No 25 mM

Reference: patent US7994402B2, “Method of increasing plant organ and seed size in a plant” (Monsanto Technology LLC, priority 2002, dated 2011)
